# Read-outs that look alike come from different tables or passages of the source.
# Target: T1, human V1b receptors (Homo sapiens, UniProt P47901)
# T1 construct: expressed in transfected cells
# T1 sequence (P47901 1-424): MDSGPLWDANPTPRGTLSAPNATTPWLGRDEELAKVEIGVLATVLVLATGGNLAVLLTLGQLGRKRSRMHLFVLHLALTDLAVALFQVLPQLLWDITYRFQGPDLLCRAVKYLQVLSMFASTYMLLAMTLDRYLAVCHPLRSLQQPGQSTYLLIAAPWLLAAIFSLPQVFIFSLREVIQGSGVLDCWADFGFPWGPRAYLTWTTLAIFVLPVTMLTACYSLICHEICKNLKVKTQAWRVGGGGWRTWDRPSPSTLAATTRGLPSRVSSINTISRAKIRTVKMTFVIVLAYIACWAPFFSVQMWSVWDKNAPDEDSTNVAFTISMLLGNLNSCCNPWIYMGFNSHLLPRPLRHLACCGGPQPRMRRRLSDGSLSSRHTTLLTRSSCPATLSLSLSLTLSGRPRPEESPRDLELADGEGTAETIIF
# Assay: Vasopressin V1b receptor binding assay
# Procedure: Vasopressin V1b Receptor Binding Assay:
# These DMSO solutions were diluted 1:10 with assay buffer. The substance concentration was further diluted 1:10 in the assay mixture.
# The nonspecific binding was determined with 10^−6 M AVP. Determinations in triplicate were carried out.
# The affinities for the human vasopressin V1b receptor were measured, and affinity constants determined, in the above assay for the inventive examples.
# The affinities of the compounds (I) of the invention for the human vasopressin V1b receptor were measured in accordance with the above assays, and the affinity constants (Ki) were determined. Table 1 below details the V1b receptor affinity of selected compounds (+++ means <10 nM and ++ means 10-100 nM).
# [1] = Table 1, human vasopressin V1b receptor affinity, read-out: V1b Ki
# [2] = membranes from CHO-K1 cells, 3H-AVP displacement, read-out: measured Ki values, affinities for the vasopressin V1b receptor
structure (smiles),measurement,setting,value
"CCOc1ccccc1C1(OC(=O)N2CCN(c3ccncc3)CC2)C(=O)N(S(=O)(=O)c2ccc(F)cc2)c2ccc(C#N)cc21 (centres unmarked) [Example 21, 1-(4-Fluorobenzenesulfonyl)-5-cyano-2-oxo-3-(2-ethoxyphenyl)-2,3-dihydro-1H-indol-3-yl 4-(pyridin-4-yl)piperazine-1-carboxylate]",Ki,[1],10 to 100 nM
same,Ki,[2],< 100 nM
"CCOc1ccccc1C1(NC(=O)N2CCN(c3ccncc3)CC2)C(=O)N(S(=O)(=O)c2ccccc2F)c2ccc(C#N)cc21 (centres unmarked) [Example 12, 4-(Pyridin-4-yl)piperazine-1-[1-(2-fluorobenzenesulfonyl)-5-cyano-2-oxo-3-(2-ethoxyphenyl)-2,3-dihydro-1H-indol-3-yl]carboxamide]",Ki,[1],< 10 nM
same,Ki,[2],< 100 nM
"CCOc1ccccc1C1(NC(=O)N2CCN(c3ccc(C#N)cn3)CC2)C(=O)N(S(=O)(=O)c2ccccc2)c2ccc(C#N)cc21 (centres unmarked) [Example 48, 4-(5-Cyanopyridin-2-yl)piperazine-1-[1-benzenesulfonyl-5-cyano-2-oxo-3-(2-ethoxyphenyl)-2,3-dihydro-1H-indol-3-yl]carboxamide]",Ki,[1],10 to 100 nM
same,Ki,[2],< 100 nM
"CCOc1ccccc1C1(OC(=O)N2CCN(c3ccncc3)CC2)C(=O)N(S(=O)(=O)c2ccccc2OC)c2ccc(C#N)cc21 (centres unmarked) [Example 2, 5-Cyano-1-(2-methoxybenzenesulfonyl)-3-(2-ethoxyphenyl)-2-oxo-2,3-dihydro-1H-indol-3-yl 4-(pyridin-4-yl)piperazine-1-carboxylate]",Ki,[1],10 to 100 nM
same,Ki,[2],< 100 nM
"CCOc1ccccc1C1(OC(=O)N2CCN(c3ccncc3)CC2)C(=O)N(S(=O)(=O)c2ccc(OC)cc2OC)c2ccc(C#N)cc21 (centres unmarked) [Example 3, 5-Cyano-1-(2,4-dimethoxybenzenesulfonyl)-3-(2-ethoxyphenyl)-2-oxo-2,3-dihydro-1H-indol-3-yl 4-(pyridin-4-yl)piperazine-1-carboxylate]",Ki,[1],< 10 nM
same,Ki,[2],< 100 nM
"CCOc1ccccc1C1(OC(=O)N2CCN(c3cnccn3)CC2)C(=O)N(S(=O)(=O)c2ccc(OC)cc2OC)c2ccc(C#N)cc21 (centres unmarked) [Example 29, 1-(2,4-Dimethoxybenzenesulfonyl)-5-cyano-2-oxo-3-(2-ethoxyphenyl)-2,3-dihydro-1H-indol-3-yl 4-(pyrazin-2-yl)piperazine-1-carboxylate]",Ki,[1],10 to 100 nM
same,Ki,[2],< 100 nM
CCOc1ccccc1C1(OC(=O)N2CCN(c3ccncc3)CC2)C(=O)N(S(=O)(=O)c2ccc(C)cc2OC)c2ccc(C#N)cc21 (centres unmarked) [Example 20],Ki,[1],< 10 nM
same,Ki,[2],< 100 nM
"CCOc1ccccc1C1(OC(=O)N2CCN(c3ncccn3)CC2)C(=O)N(S(=O)(=O)c2ccc(OC)cc2OC)c2ccc(C#N)cc21 (centres unmarked) [Example 27, 1-(2,4-Dimethoxybenzenesulfonyl)-5-cyano-2-oxo-3-(2-ethoxyphenyl)-2,3-dihydro-1H-indol-3-yl 4-(pyrimidin-2-yl)piperazin-1-carboxylate]",Ki,[1],10 to 100 nM
same,Ki,[2],< 100 nM
"CCOc1ccccc1C1(OC(=O)N2CCN(c3nccs3)CC2)C(=O)N(S(=O)(=O)c2ccccc2OC)c2ccc(C#N)cc21 (centres unmarked) [Example 4, 5-Cyano-1-(2-methoxybenzenesulfonyl)-3-(2-ethoxyphenyl)-2-oxo-2,3-dihydro-1H-indol-3-yl 4-(thiazol-2-yl)piperazine-1-carboxylate]",Ki,[1],< 10 nM
same,Ki,[2],< 100 nM
"CCOc1ccccc1C1(NC(=O)N2CCN(c3ccc(C#N)cn3)CC2)C(=O)N(S(=O)(=O)c2ccc(C#N)cc2)c2ccc(C#N)cc21 (centres unmarked) [Example 50, 4-(5-Cyanopyridin-2-yl)piperazine-1-[1-(4-cyanobenzenesulfonyl)-5-cyano-2-oxo-3-(2-ethoxyphenyl)-2,3-dihydro-1H-indol-3-yl]carboxamide]",Ki,[1],10 to 100 nM
"CCOc1ccccc1C1(OC(=O)N2CCN(c3ccncc3)CC2)C(=O)N(S(=O)(=O)c2ccccc2F)c2ccc(C#N)cc21 (centres unmarked) [Example 8, 5-Cyano-1-(2-fluorobenzenesulfonyl)-3-(2-ethoxyphenyl)-2-oxo-2,3-dihydro-1H-indol-3-yl 4-(pyridin-4-yl)piperazine-1-carboxylate]",Ki,[1],10 to 100 nM
same,Ki,[2],< 100 nM
"CCOc1ccccc1C1(NC(=O)N2CCN(c3ccc(C#N)cn3)CC2)C(=O)N(S(=O)(=O)c2ccc(Cl)cc2)c2ccc(C#N)cc21 (centres unmarked) [Example 46, 4-(5-Cyanopyridin-2-yl)piperazine-1-[1-(4-chlorobenzenesulfonyl)-5-cyano-2-oxo-3-(2-ethoxyphenyl)-2,3-dihydro-1H-indol-3-yl]carboxamide]",Ki,[1],10 to 100 nM
same,Ki,[2],< 100 nM
"CCOc1ccccc1C1(NC(=O)N2CCN(c3cnccn3)CC2)C(=O)N(S(=O)(=O)c2ccc(OC)cc2OC)c2ccc(C#N)cc21 (centres unmarked) [Example 35, 4-(Pyrazin-2-yl)piperazine-1-[1-(2,4-dimethoxybenzenesulfonyl)-5-cyano-2-oxo-3-(2-ethoxyphenyl)-2,3-dihydro-1H-indol-3-yl]carboxamide]",Ki,[1],10 to 100 nM
same,Ki,[2],< 100 nM
"CCOc1ccccc1C1(OC(=O)N2CCN(c3ccncc3)CC2)C(=O)N(S(=O)(=O)c2ccc(F)cc2F)c2ccc(C#N)cc21 (centres unmarked) [Example 7, 5-Cyano-1-(2,4-difluorobenzenesulfonyl)-3-(2-ethoxyphenyl)-2-oxo-2,3-dihydro-1H-indol-3-yl 4-(pyridin-4-yl)piperazine-1-carboxylate]",Ki,[1],10 to 100 nM
same,Ki,[2],< 100 nM
"CCOc1ccccc1C1(OC(=O)N2CCN(c3cc(C#N)ccn3)CC2)C(=O)N(S(=O)(=O)c2ccc(OC)cc2OC)c2ccc(C#N)cc21 (centres unmarked) [Example 26, 1-(2,4-Dimethoxybenzenesulfonyl)-5-cyano-2-oxo-3-(2-ethoxyphenyl)-2,3-dihydro-1H-indol-3-yl 4-(4-cyanopyridin-2-yl)piperazine-1-carboxylate]",Ki,[1],< 10 nM
same,Ki,[2],< 100 nM
"CCOc1ccccc1C1(NC(=O)N2CCN(c3ccncc3)CC2)C(=O)N(S(=O)(=O)c2ccc(C#N)cc2)c2ccc(C#N)cc21 (centres unmarked) [Example 14, 4-(Pyridin-4-yl)piperazine-1-[1-(4-cyanobenzenesulfonyl)-5-cyano-2-oxo-3-(2-ethoxyphenyl)-2,3-dihydro-1H-indol-3-yl]carboxamide]",Ki,[1],< 10 nM
same,Ki,[2],< 100 nM
"CCOc1ccccc1C1(NC(=O)N2CCN(c3ccncc3)CC2)C(=O)N(S(=O)(=O)c2ccc(F)cc2F)c2ccc(C#N)cc21 (centres unmarked) [Example 13, 4-(Pyridin-4-yl)piperazine-1-[1-(2,4-difluorobenzenesulfonyl)-5-cyano-2-oxo-3-(2-ethoxyphenyl)-2,3-dihydro-1H-indol-3-yl]carboxamide]",Ki,[1],10 to 100 nM
same,Ki,[2],< 100 nM
"CCOc1ccccc1C1(NC(=O)N2CCN(c3ccncc3)CC2)C(=O)N(S(=O)(=O)c2ccc(C)cc2OC)c2ccc(C#N)cc21 (centres unmarked) [Example 15, 4-(Pyridin-4-yl)piperazine-1-[1-(2-methoxy-4-methylbenzenesulfonyl)-5-cyano-2-oxo-3-(2-ethoxyphenyl)-2,3-dihydro-1H-indol-3-yl]carboxamide]",Ki,[1],< 10 nM
same,Ki,[2],< 100 nM
"CCOc1ccccc1C1(NC(=O)N2CCN(c3ccncc3)CC2)C(=O)N(S(=O)(=O)c2ccccc2)c2ccc(C#N)cc21 (centres unmarked) [Example 11, 4-(Pyridin-4-yl)piperazine-1-[1-benzenesulfonyl-5-cyano-2-oxo-3-(2-ethoxyphenyl)-2,3-dihydro-1H-indol-3-yl]carboxamide]",Ki,[1],10 to 100 nM
same,Ki,[2],< 100 nM
"CCOc1ccccc1C1(NC(=O)N2CCN(c3ccc(C#N)cn3)CC2)C(=O)N(S(=O)(=O)c2ccc(OC)cc2OC)c2ccc(C#N)cc21 (centres unmarked) [Example 33, 4-(5-Cyanopyridin-2-yl)piperazine-1-[1-(2,4-dimethoxybenzenesulfonyl)-5-cyano-2-oxo-3-(2-ethoxyphenyl)-2,3-dihydro-1H-indol-3-yl]carboxamide]",Ki,[1],< 10 nM
same,Ki,[2],< 100 nM
"CCOc1ccccc1C1(NC(=O)N2CCN(c3ncccn3)CC2)C(=O)N(S(=O)(=O)c2ccc(OC)cc2OC)c2ccc(C#N)cc21 (centres unmarked) [Example 34, 4-(Pyrimidin-2-yl)piperazine-1-[1-(2,4-dimethoxybenzenesulfonyl)-5-cyano-2-oxo-3-(2-ethoxyphenyl)-2,3-dihydro-1H-indol-3-yl]carboxamide]",Ki,[1],< 10 nM
same,Ki,[2],< 100 nM
"CCOc1ccccc1C1(NC(=O)N2CCN(c3ccc(C#N)cn3)CC2)C(=O)N(S(=O)(=O)c2ccc([N+](=O)[O-])cc2)c2ccc(C#N)cc21 (centres unmarked) [Example 43, 4-(5-Cyanopyridin-2-yl)piperazine-1-[1-(4-nitrobenzenesulfonyl)-5-cyano-2-oxo-3-(2-ethoxyphenyl)-2,3-dihydro-1H-indol-3-yl]carboxamide]",Ki,[1],10 to 100 nM
same,Ki,[2],< 100 nM
"CCOc1ccccc1C1(NC(=O)N2CCN(c3ccc(C#N)cn3)CC2)C(=O)N(S(=O)(=O)c2ccccc2F)c2ccc(C#N)cc21 (centres unmarked) [Example 49, 4-(5-Cyanopyridin-2-yl)piperazin-1-[1-(2-fluorobenzenesulfonyl)-5-cyano-2-oxo-3-(2-ethoxyphenyl)-2,3-dihydro-1H-indol-3-yl]carboxamide]",Ki,[2],< 100 nM
